The values below are quoted from earlier work in patent US20220166043A1, “NEGATIVE ELECTRODE ELECTROLYTE SOLUTION FOR REDOX FLOW BATTERIES, AND REDOX FLOW BATTERY” (ARM Technologies Co., Ltd., priority 2019, published 2022).

For this data set the following is noted: octanol-water partition coefficient of the negative electrode solvent.

Values joined by “and” are separate entries in the source; they are usually repeats but may differ in a detail not shown here. Equal values may be shown once. Read-outs that look alike come from different tables or passages of the source.

Turning to “1-methyl-1-propylpyrrolidinium bis(trifluoromethanesulfonyl)imide”, the “Negative electrode solvent LogP (Log POW)” value is reported as 4.82. Also, the “Negative electrode solvent LogP (Log POW)” value (listed as PP13 TFSI) is listed as 4.8165.
On to `Cc1cnc(C)c(C)n1` [2,3,5-trimethylpyrazine], for which the “Negative electrode solvent LogP (Log POW)” value is 1.402 and 1.40.
In the case of `c1ccc(COCCOCc2ccccc2)cc1` [EGDBE, ethylene glycol dibenzyl ether], the “Negative electrode solvent LogP (Log POW)” value is given as 3.42.
With `COC1CCCC1` [MCP, methoxycyclopentane], the “Negative electrode solvent LogP (Log POW)” value is 1.575 and 1.58.
